Test results reported in patent publication US9586963B2 (GENFIT, priority 2011, dated 2017).
Structures can show the parent of a compound that is named as a salt.

Biological target: T1, Rev-Erb alpha (Homo sapiens, UniProt P20393)
T1 sequence (P20393 284-614 limits assumed): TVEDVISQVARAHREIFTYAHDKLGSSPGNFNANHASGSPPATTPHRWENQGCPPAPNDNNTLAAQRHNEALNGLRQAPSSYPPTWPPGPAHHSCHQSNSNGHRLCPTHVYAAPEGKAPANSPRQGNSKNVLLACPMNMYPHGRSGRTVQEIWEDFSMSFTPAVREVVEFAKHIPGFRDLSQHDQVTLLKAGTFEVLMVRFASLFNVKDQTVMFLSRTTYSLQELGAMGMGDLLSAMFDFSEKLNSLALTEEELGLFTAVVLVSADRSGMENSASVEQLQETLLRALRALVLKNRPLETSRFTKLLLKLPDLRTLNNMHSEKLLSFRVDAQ
Experiment: M2H (mammalian two-hybrid) cellular activation assay of Rev-Erb alpha
Format: cell-based
Conditions: M2H assay, HEK293 cells, Gal4-Rev-Erb alpha / VP16-NCoR, luciferase reporter
Description: In this system, Rev-Erb alpha or Rev-Erb beta is expressed as a fusion to the Gal4 DNA-binding domain and the cofactor NCoR is expressed as a fusion to the activation domain of the Herpes Simplex Virus tegument protein VP16. These fusion proteins were included in plasmids at a concentration of 1 μg/μL. The pBS-SK+ vector was added to the preparation to adjust the DNA quantity to a fixed value for each condition.
The transfection mix (Jet-PEI protocol, Polyplus transfection) comprised: • 3 mL of Jet PEI Mix (180 μL Jet-Pei and NaCl at 150 mM) and • 3 mL of the DNA Mix or of the DNA Mix control (wherein the Gal4-Rev-Erb alpha plasmid was replaced by a pGal4phi plasmid).
DNA Mix comprised 1.2 mL of DNA and 1.8 mL of NaCl at 150 mM with, in a T225 flask: • 90 ng of Gal4-Rev-Erb alpha, or 90 ng of Gal4-Rev-Erb beta, • 4500 ng of VP16-NCoR, • 27000 ng of Gal4-RE and • 13410 ng of pBS-SK+. Cells
HEK293 cells were cultured in DMEM (Invitrogen 41965) comprising 10% FBS, P/S, 1% glutamine, 1% pyruvate (Invitrogen 11360) and 1% amino acids (Invitrogen 11140). Cells were then batch co-transfected with plasmid vectors (described in the table above) using as Jet-PEI as reagent (Polyplus) following the protocol specified below.
The 6 mL-transfection mix was transferred in a T225 flask. HEK293 cells were then added at a concentration of 12 Millions of cells for 54 mL of medium (DMEM comprising 10% FBS and 1% P/S). Cells incubated over-night at 37° C. and under 5% CO2.
This cell-based assay is performed using 384-well Greiner white plates (Reference 781080). After the incubation, cells were rinsed with PBS, trypsinized, centrifuged and resuspended in free-serum DMEM without phenol red (Invitrogen 31053). Cells were counted and adjusted to 0.5 Million per mL and plated at a concentration of 10,000 cells in 20 μL per well. They were incubated a minimum of 4 hours at 37° C. under 5% CO2. Cells were treated with 20 μL of the compound to analyze (concentration of 2× diluted in DMEM without FBS containing a maximum of 1% DMSO) and incubated over-night (18 hours, 37° C. and 5% CO2). Each compound has been tested at 6 different concentrations to depict a dose-effect allowing the measure of biochemical parameters such as EC50 and TOP activation (%).
Cells were incubated 30 minutes with 40 μL/well of Steady Glow (Promega) and luminescence was read with TECAN Genios Pro (100 ms/w). Four experiments were carried out for each compound.
Each compound has been tested at 6 different concentrations to depict a dose-effect allowing the measure of biochemical parameters such as EC50 and TOP activation (%).
The mammalian two-hybrid system (M2H) assay consists herein in studying the ability of compounds according to the invention to activate Rev-Erbalpha in cells and thus modulate the interaction with its corepressor. The interaction of the two proteins is assessed with the help of the Luciferase reporter gene. HEK293 cells were transfected with two gene constructions: Gal4-RE VP16-NCoR and Gal4-Rev-Erbalpha or with Gal4-RE, sVP16-NCoR and Gal4-Rev-Erb beta.
The ability of compounds according to the invention of activating Rev-Erbalpha alpha or Rev-Erb beta was assessed in the described cell-based assay. EC50 and TOP activation (%) were measured.

Structure (SMILES)	EC50
FC(F)(F)c1nnc2ccc(Oc3ccccc3-c3ccccc3)nn12 [Cpd.4-2, 6-(biphenyl-2-yloxy)-3-(trifluoromethyl)-[1,2,4]triazolo[4,3-b]pyridazine]	100 to 1000 nM
Fc1ccc(-c2ccc(C(F)(F)F)cc2Oc2ccc3nnc(Cl)n3n2)cn1 [Cpd.4-87, 3-chloro-6-(2-(6-fluoropyridin-3-yl)-5-(trifluoromethyl)phenoxy)-[1,2,4]triazolo[4,3-b]pyridazine]	1000 to 6000 nM
Cc1cc2nnc(Cl)n2nc1Oc1cc(C(F)(F)F)ccc1-c1cncnc1C [Cpd.5-47, 3-chloro-7-methyl-6-(2-(4-methylpyrimidin-5-yl)-5-(trifluoromethyl)phenoxy)-[1,2,4]triazolo[4,3-b]pyridazine]	1000 to 6000 nM
Clc1nnc2ccc(Oc3ccccc3-c3cccnc3)nn12 [Cpd.4-98, 3-chloro-6-(2-(pyridin-3-yl)phenoxy)-[1,2,4]triazolo[4,3-b]pyridazine hydrochloride]	> 6000 nM
Fc1ncccc1-c1ccc(C(F)(F)F)cc1Oc1ccc2nnc(Cl)n2n1 [Cpd.4-78, 3-chloro-6-(2-(2-fluoropyridin-3-yl)-5-(trifluoromethyl)phenoxy)-[1,2,4]triazolo[4,3-b]pyridazine]	100 to 1000 nM
COc1ccccc1-c1ccccc1Oc1ccc2nnc(Cl)n2n1 [Cpd.4-111, 3-chloro-6-(2′-methoxybiphenyl-2-yloxy)-[1,2,4]triazolo[4,3-b]pyridazine]	100 to 1000 nM
Fc1ccc(Oc2ccc3nnc(Cl)n3n2)c(-c2cccnc2)c1 [Cpd.4-107, 3-chloro-6-(4-fluoro-2-(pyridin-3-yl)phenoxy)-[1,2,4]triazolo[4,3-b]pyridazine]	> 6000 nM
FC(F)(F)c1ccc(-c2cncnc2)c(Oc2nn3c(Cl)nnc3c3ccccc23)c1 [Cpd.5-22, 3-chloro-6-(2-(pyrimidin-5-yl)-5-(trifluoromethyl)phenoxy)-[1,2,4]triazolo[3,4-a]phthalazine]	100 to 1000 nM
FC(F)(F)c1cccc(-c2ccccc2Oc2ccc3nnc(Cl)n3n2)c1 [Cpd.4-28, 6-(3′-trifluoromethyl-biphenyl-2-yloxy)-3-chloro-[1,2,4]triazolo[4,3-b]pyridazine]	100 to 1000 nM
FC(F)(F)c1cccc(Oc2ccc3nnc(Cl)n3n2)c1-c1ccccc1	< 100 nM
COc1cncc(-c2ccc(C(F)(F)F)cc2Oc2ccc3nnc(Cl)n3n2)c1 [Cpd.4-82, 3-chloro-6-(2-(5-methoxypyridin-3-yl)-5-(trifluoromethyl)phenoxy)-[1,2,4]triazolo[4,3-b]pyridazine]	1000 to 6000 nM
Cc1cc(Oc2cc(C(F)(F)F)ccc2-c2cncnc2C(C)C)nn2c(Cl)nnc12 [Cpd.5-38, 3-chloro-8-methyl-6-((2-(4-isopropylpyrimidin-5-yl))-5-(trifluoromethyl)phenoxy)-[1,2,4]triazolo[4,3-b]pyridazine]	1000 to 6000 nM
Cc1cccc(-c2ccccc2Oc2ccc3nnc(C(F)(F)F)n3n2)c1 [Cpd.4-133, 3-(trifluoromethyl)-6-(3′-methylbiphenyl-2-yloxy)-[1,2,4]triazolo[4,3-b]pyridazine]	100 to 1000 nM
Cc1ncccc1-c1ccc(C(F)(F)F)cc1Oc1ccc2nnc(Cl)n2n1 [Cpd.4-123, 3-chloro-6-(2-(2-methylpyridin-3-yl)-5-(trifluoromethyl)phenoxy)-[1,2,4]triazolo[4,3-b]pyridazine]	100 to 1000 nM
Clc1cccc(-c2ccccc2Oc2ccc3nnc(Cl)n3n2)c1 [Cpd.4-29, 6-(3′-chloro-biphenyl-2-yloxy)-3-chloro-[1,2,4]triazolo[4,3-b]pyridazine]	100 to 1000 nM
FC(F)(F)c1ccc(Oc2ccc3nnc(Cl)n3n2)c(-c2ccccc2)c1 [Cpd.4-40, 6-(5-trifluoromethyl-biphenyl-2-yloxy)-3-chloro-[1,2,4]triazolo[4,3-b]pyridazine]	100 to 1000 nM
CC(C)C(=O)Nc1ccc(Oc2ccc3nnc(Cl)n3n2)c(-c2ccccc2)c1 [Cpd.4-192, 3-chloro-6-(5-isopropylcarbonylamino-biphenyl-2-yloxy)-[1,2,4]triazolo[4,3-b]pyridazine]	1000 to 6000 nM
Cc1ncncc1-c1ccc(C(F)(F)F)cc1Oc1cc(C)c2nnc(Cl)n2n1 [Cpd.5-45, 3-chloro-8-methyl-6-(2-(4-methylpyrimidin-5-yl)-5-(trifluoromethyl)phenoxy)-[1,2,4]triazolo[4,3-b]pyridazine]	1000 to 6000 nM
OCc1ccc(Oc2ccc3nnc(Cl)n3n2)c(-c2ccccc2)c1 [Cpd.4-66, 3-chloro-6-(5-hydroxymethyl-biphenyl-2-yloxy)-[1,2,4]triazolo[4,3-b]pyridazine]	1000 to 6000 nM
Cc1ccc(-c2cc(F)ccc2Oc2ccc3nnc(Cl)n3n2)cc1 [Cpd.4-143, 3-chloro-6-(5-fluoro-4′-methylbiphenyl-2-yloxy)-[1,2,4]triazolo[4,3-b]pyridazine]	100 to 1000 nM
Nc1ccc(-c2ccccc2)c(Oc2ccc3nnc(Cl)n3n2)c1 [Cpd.4-48, 3-chloro-6-(4-amino-biphenyl-2-yloxy)-[1,2,4]triazolo[4,3-b]pyridazine]	1000 to 6000 nM
CN1CCN(Cc2ccc(-c3ccccc3)c(Oc3ccc4nnc(Cl)n4n3)c2)CC1 [Cpd.4-177, 3-chloro-6-(4-(1-methylpiperazin-4-ylmethyl)biphenyl-2-yloxy)-[1,2,4]triazolo[4,3-b]pyridazine]	> 6000 nM
Nc1ccc(Oc2ccc3nnc(Cl)n3n2)c(-c2ccccc2)c1 [Cpd.4-36, 6-(5-amino-biphenyl-2-yloxy)-3-chloro-[1,2,4]triazolo[4,3-b]pyridazine]	1000 to 6000 nM
Clc1nnc2ccc(Oc3ccc(CNCC4CCCO4)cc3-c3ccccc3)nn12 (stereo not shown) [Cpd.4-163, 3-chloro-6-(5-(tetrahydrofurfurylaminomethyl)biphenyl-2-yloxy)-[1,2,4]triazolo[4,3-b]pyridazine]	> 6000 nM
COc1cccc(-c2ccc(C(F)(F)F)cc2Oc2ccc3nnc(Cl)n3n2)c1 [Cpd.4-71, 3-chloro-6-(3′-methoxy-4-trifluoromethyl-biphenyl-2-yloxy)-[1,2,4]triazolo[4,3-b]pyridazine]	100 to 1000 nM
CS(=O)(=O)Nc1ccc(Oc2ccc3nnc(Cl)n3n2)c(-c2ccccc2)c1 [Cpd.4-173, 3-chloro-6-(5-methylsulfonamidobiphenyl-2-yloxy)-[1,2,4]triazolo[4,3-b]pyridazine]	1000 to 6000 nM
CN(CCc1ccccc1)Cc1ccc(Oc2ccc3nnc(Cl)n3n2)c(-c2ccccc2)c1	1000 to 6000 nM
CC(=O)OCc1ccc(-c2ccccc2)c(Oc2ccc3nnc(Cl)n3n2)c1 [Cpd.4-172, 3-chloro-6-(4-methylcarbonyloxymethylbiphenyl-2-yloxy)-[1,2,4]triazolo[4,3-b]pyridazine]	100 to 1000 nM
COc1ncc(C)cc1-c1ccc(C(F)(F)F)cc1Oc1nn2c(Cl)nnc2cc1C [Cpd.5-28, 3-chloro-7-methyl-6-((2-(2-methoxy-5-methylpyridin-3-yl))-5-(trifluoromethyl)phenoxy)-[1,2,4]triazolo[4,3-b]pyridazine]	1000 to 6000 nM
COc1ccc(-c2cccc(F)c2)c(Oc2ccc3nnc(Cl)n3n2)c1 [Cpd.4-112, 3-chloro-6-[(3′-fluoro-4-methoxybiphenyl-2-yl)oxy]-[1,2,4]triazolo[4,3-b]pyridazine]	< 100 nM

Same assay, conditions: M2H assay, HEK293 cells; relative to DMSO; at the tested dose; read-out: TOP activation

Structure (SMILES)	Emax
Clc1nnc2ccc(Oc3ccccc3-c3cccnc3)nn12 [Cpd.4-98, 3-chloro-6-(2-(pyridin-3-yl)phenoxy)-[1,2,4]triazolo[4,3-b]pyridazine hydrochloride]	> 130%
Fc1ccc(Oc2ccc3nnc(Cl)n3n2)c(-c2cccnc2)c1 [Cpd.4-107, 3-chloro-6-(4-fluoro-2-(pyridin-3-yl)phenoxy)-[1,2,4]triazolo[4,3-b]pyridazine]	> 130%
CN1CCN(Cc2ccc(-c3ccccc3)c(Oc3ccc4nnc(Cl)n4n3)c2)CC1 [Cpd.4-177, 3-chloro-6-(4-(1-methylpiperazin-4-ylmethyl)biphenyl-2-yloxy)-[1,2,4]triazolo[4,3-b]pyridazine]	> 130%
Clc1nnc2ccc(Oc3ccc(CNCC4CCCO4)cc3-c3ccccc3)nn12 (stereo not shown) [Cpd.4-163, 3-chloro-6-(5-(tetrahydrofurfurylaminomethyl)biphenyl-2-yloxy)-[1,2,4]triazolo[4,3-b]pyridazine]	> 130%
